Measured values taken from patent publication US10945962B2, “Controlled-release peptide compositions and uses thereof” (BOARD OF REGENTS OF THE UNIVERSITY OF NEBRASKA, priority 2011, dated 2021).
Like-named read-outs stand apart in the source and are kept apart here. Square brackets hold non-standard residues; d marks the D form. Ends that are not written are not given here. NMeL = CN[C@@H](CC(C)C)C(=O)O

Tests used:
MUC1 epitope = assay: Immunization with MUC1/C5a agonist peptides, serum antibody responses (RIA, ELISA); type: in vivo; settings: 100 μg i.p. with RIBI adjuvant, three immunizations, Balb/c and C57B16 mice
Description: Animal Models. The strains of mice used in the studies described in this Example were inbred 6- to 12-week-old C57B16(H-2b) and Balb/c ([…]) females obtained from Jackson Labs (Bar Harbor, Me.). […] The MUC1 peptide selected for these studies contained a motif that may bind to the H-2Kb molecule of the C57B16 mice. Therefore, a strain of mouse that lacked this class I molecule-binding motif (Balb/c) was also studied to determine the relative contribution of the class I-binding motif to the antigen presentation properties of these peptides.
Immunization Protocol. Preimmune sera were obtained from mice, which were subsequently immunized intraperitoneally with 100 μg of the indicated peptide with RIBI adjuvant (MPL+TDM+CWS) (Sigma Immunochemicals). Animals were boosted twice at two-week intervals using the same injection procedure. Sera were obtained following three immunizations (at 6 weeks).
Analysis of Serum Antibody Responses. For radioimmunoassay (RIA), anti-peptide antibodies were determined, before and at different time points after immunization, in 96-well microtiter plates (Dynatech Laboratories, Inc.). Plates were coated with 50 μl of a 100 μg/ml appropriate peptide in phosphate-buffered saline (PBS) pH 7.4 solution overnight at 4° C. The wells were blocked by incubation with 5% dry milk in PBS pH 7.4 for at least two hours. Anti-peptide antibody titers were determined using serial dilutions of sera. […] After washing, specific radioactivity was recorded in a gamma counter (1272 CliniGamma, LKB).
Anti-peptide antibody isotype titers were determined by enzyme-linked immunosorbent assay (ELISA) carried out in 96-well microtiter plates. […] Anti-peptide titers were determined using serial dilutions of sera. […] Again, the plates were washed 4 times with washing buffer and bound enzyme was detected by the addition of 50 μl 1 mg/ml p-nitrophenyl phosphate (Sigma) in 10% diethanolamine (Sigma) pH 9.4. The reaction was stopped by the addition of 50 μl of 0.5 M sodium hydroxide and absorbance values (A405) were determined using Titertek Multiskan (Flow Laboratories, Irvine, Scotland). […]

exMAcs and neutrophils = settings: aged lung
Description: Since the aged mouse is considered a strong model for age-related changes in human immunity, the response of aged mice to EP67 insufflation was examined.

[1] = tested on: S. aureus (Newman strain); assay: S. aureus in vitro EP67 killing curves; type: cell-based; settings: dilution series, LB
Description: 150 μl of LB growth medium plus 50 μl of EP67 or s-EP67 were added to individual culture wells resulting in a dilution series of 6 wells per EP67 or s-EP67. A “no EP67” well (control) was included at the end of each series. S. aureus (Newman strain) was allowed to grow to an OD600 of 0.4 and each well of the dilution series was inoculated with 5 μl of the culture. Two wells with no bacterial inoculums were included to serve as controls. Plates were incubated at 37° C. with agitation and the OD600 of each well was measured hourly using a plate reader.

influenza A/A/PR/8 = type: in vivo; settings: mice
E. coli strain DHSα = assay: Direct killing of bacteria, OD600 growth curves; type: cell-based; settings: for effect on log phase growth (OD600): added at OD600 0.2, 500 μg/m, LB or TSB
Description: E. coli strain DHSα was grown overnight in Lennox Broth (LB). This culture was diluted to an optical density at […] (OD600) of 0.06. The diluted E. coli was dispensed in 1.5 ml aliquots into separate tubes and 1.5 ml of EP67 ([…] ID NO: 4)), EP54 ([…] NO: 3)), scrambled-EP67 (s-EP67) or scrambled-EP54 in LB was added to obtain a final concentration of 500 μg/ml with the E. coli at an OD600 of 0.03. A culture in LB was also prepared. The cultures were incubated at 37° C. with shaking and the OD600 readings recorded hourly. In order to determine whether the growth media altered the effectiveness of EP67, LB was replaced with an alternative growth media, Tryptic Soy Broth (TSB). To test the efficacy of EP67 on bacteria growing in log phase, overnight cultures of DHSα were grown in either LB or TSB. […] DH5α control cultures (absence of additives) were also prepared. The tubes were further shaken at 37° C. and OD600 readings were taken hourly.

[2] = tested on: bronchoalveolar lavage (BAL) cells; assay: Insufflation of EP67 to the lungs, FACS analysis of BAL cells; type: in vivo, mice
Description: In short, EP67 (3 mg/kg) was delivered directly to the lungs of mice through insufflation (IN). Animals were sacrificed one day later. Lungs were lavaged with PBS to isolate the bronchoalveolar lavage (BAL) cells for staining and FACS analysis.

neutrophils = assay: Neutrophil chemotaxis and myeloperoxidase assay, histopathology of injection site; type: in vivo, CD1 mice; settings: for histopathologic analysis of skin tissue: 250 μg s.c., no bacteria
Description: Neutrophil chemotaxis and myeloperoxidase assay. Neutrophil recruitment at the site of injection by EP67 or sEP67 was examined using an in vivo chemotaxis assay as described previously (van Sorge N M, et al., PLoS One 2008; 3:e2964). Briefly, 250 μg EP67 or sEP67 were injected subcutaneously into the right flank of CD1 mice. The injection was repeated after 24 h. Mice were euthanized 4 h after the second injection and the site of injection excised for histopathologic analysis or determination of myeloperoxidase (MPO) activity as described previously (van Sorge N M, et al., supra). The assay was carried out two times and the samples analyzed in duplicate.
Neutrophil influx is essential for the protective action of EP67. […] Neutrophil recruitment to the site of EP67 injection was further analyzed using an in vivo neutrophil recruitment assay as described previously (van Sorge N M, et al., supra; and Banerjee A, et al., Cell Microbiol; 12:1576-1588). Neutrophil migration was assessed in skin homogenates following injection of EP67 or sEP67 by determining the level of neutrophil enzyme myeloperoxidase (MPO), which serves as an effective indication of neutrophil infiltration (Banerjee A, et al., supra; and Bradley P P, et al., J Invest Dermatol 1982; 78:206-209). This method compares well with other in vivo assays of neutrophil chemotaxis (van Sorge N M, et al., supra).

[3] = tested on: anti-influenza antibodies; assay: ELISA for anti-influenza antibodies on serum; type: in vivo, mice; settings: influenza-infected, EP67-treated groups
BAL cells = settings: infected with influenza A/PR/8 and simultaneously treated, one day later
Description: To test the robustness of the EP67 response, mice were treated at the time of influenza infection. Animals were sacrificed one day later for analysis of BAL cells as above.

[4] = tested on: IL-6, TNF-α, INF-γ and KC; assay: Measurement of cytokines in tissue homogenates by ELISA; type: in vivo, mice
Description: Measurement of cytokines. IL-6, TNF-α, INF-γ and KC inflammatory cytokines were measured in tissue homogenates as previously described using ELISA for IL-6, TNF-α, INF-γ (Morgan E L, et al., Vaccine; 28:8275-8279), or according to manufacturer's protocols (BD and R&D Systems) for KC. Samples were run in triplicate.
Proinflammatory cytokines are enhanced by EP67 treatment. The decrease in lesion size observed in EP67-treated animals indicated an enhanced immune activation in these animals. In order to determine the nature of the immune response activated by EP67 treatment, skin lesions were harvested 48 h post-infection and EP67 or sEP67 treatment, and subjected to ELISA to measure proinflammatory cytokines in tissue homogenates.

GBS = assay: Group B Streptococcus (GBS) meningitis model; type: in vivo; settings: CD1 mice, 250 μg i.p. at day −1, 0, 1 and 2, 96 hours post-injection
Description: 8-week-old female CD1 mice were treated with 250 μg of EP67 or s-EP67 at day −1, 0, 1 and 2 via i.p. injection. GBS was injected i.p. at 1×10^9 cfu/mouse. Brains and blood were harvested from each mouse 96 hours post-injection. The tissue was homogenized, diluted and plated to determine the cfu/g bacteria.

CA-MRSA strain USA300 = assay: Mouse model of MRSA dermonecrotic infection (lesion size, bacterial load); type: in vivo, Staphylococcus aureus
[5] = tested on: S. aureus (USA300 LAC strain) biofilm; assay: Catheter-associated biofilm bacterial burden; type: in vivo; settings: C57BL/6 mice, Day 3, relative to sEP67 and PBS vehicle
Description: A S. aureus (USA300 LAC strain) biofilm was established on a hollow catheter (1 cm in length) inserted subcutaneously into C57BL/6 mice by introducing 1000 CFUs of S. aureus into the catheter lumen. At the time of infection, one dose of EP67 (200 μg/ml dissolved in PBS) was introduced. At both 24 and 48 h following infection, a series of four injections of EP67 were made; two into each open end of the catheter (20 μl each) and two along the top and bottom at points perpendicular to the middle of the catheter (50 μl each). Samples of the biofilm and surrounding tissue were obtained at Day 3 and assessed for the presence of viable bacteria by standard culture methods.

[6] = EP67 3 mg/kg insufflation, one day later
[7] = 48 h post-infection, compared to sEP67

YSFKPMPLaRKQGGFLGL (YSFKPMPL[dA]RKQGGFLGL; listed as Homo sapiens) [peptide 4]
antibody response to inoculation (MUC1 epitope): immune responses were not produced | antibody response to inoculation (MUC1 epitope; listed as MUC1 epitope conjugated to the C5a agonist peptide at its C-terminus): no appreciable increase in antibody response

Tyr-Ser-Phe-Lys-Pro-Met-Pro-Leu-(D-Ala)-Arg (YSFKPMPL[dA]R) [EP54, C5a C-terminal decapeptide agonist analog]
antibody response to inoculation (MUC1 epitope): no appreciable increase in antibody response

Tyr-Ser-Phe-Lys-Asp-Met-Pro-MeL-(D-Ala)-Arg (YSFKDMP[NMeL][dA]R; listed as Homo sapiens) [EP67, C-terminal analog of C5a]
exMAcs and neutrophils in the alveolar space (exMAcs and neutrophils): induces a large population of exMAcs and neutrophils into the alveolar space | effect on bacterial growth (OD600) [1]: dose dependent inhibitory effect | influenza-induced weight loss (influenza A/A/PR/8; treated one day after infection): displayed significant protection from influenza-induced weight loss | influenza-induced weight loss (influenza A/A/PR/8; treated the day before infection or the day of infection): lost significantly less weight than the non-treated animals | effect on bacterial growth (OD600) (E. coli strain DHSα; 500 μg/ml, start OD600 0.03, LB or TSB): induces direct bacteriostatic/bacteriocidal effects | effect on log phase growth (OD600) (E. coli strain DHSα): significantly reduce and/or stop log phase growth | CD11b+CD11c− cells (GR-1+ neutrophils) in the alveolar space [2, 6]: a large population of CD11b^+CD11c^− cells appeared in the alveolar space | exudate macrophages (exMac) in BAL cells [2, 6]: appearance of cells bearing the CD11b^+CD11c^+ phenotype of exudate macrophages (exMac) | dose dependence of EP67-induced changes in BAL populations ([2]; mouse, in vivo): displayed a strict dose-response | time course of the EP67 response in BAL cells ([2]; seven days post EP67 administration): the neutrophils were largely lost | histopathologic analysis of skin tissue (neutrophils): massive influx of inflammatory cells, including neutrophils | myeloperoxidase (MPO) level, accumulating neutrophils (neutrophils; skin homogenates, 250 μg s.c. twice, compared to sEP67): significantly higher | anti-influenza Abs in serum [3]: a high concentration of anti-influenza Abs was found in each group | BAL exMAcs and neutrophils (BAL cells): showed a similar increase in BAL exMAcs and neutrophils to the uninfected animals treated with EP67 | IL-6 level in skin lesion homogenate [4, 7]: Significantly higher levels | murine KC level in skin lesion homogenate [4, 7]: Significantly higher levels | INF-γ production ([4]; during MRSA infection): increase | TNF-α production ([4]; during MRSA infection): increase | protection against GBS infection (cfu/g in brain and blood) (GBS): protects against GBS infections in the central nervous system | cutaneous lesion size (CA-MRSA strain USA300; CD1 mice, 250 μg s.c., 48 h post-bacterial inoculation, compared to sEP67): significantly reduced | bacterial load (CFU) within lesions (CA-MRSA strain USA300; CD1 mice, 5 days post-inoculation, compared to sEP67 or PBS): significant reduction in bacterial load | lesion size (CA-MRSA strain USA300; CD88−/− mice, EP67 versus sEP67): no difference in lesion size | lesion size (CA-MRSA strain USA300; CD-1 mice given isotype IgG control antibody, compared to sEP67): significant reduction in lesion size | lesion size (CA-MRSA strain USA300; neutropenic CD-1 mice (RB6-8C5 monoclonal antibody), EP67 versus sEP67): no quantifiable difference in lesion size | lesion size (CA-MRSA strain USA300; wild-type CD88+/+ C57Bl/6 mice, compared to sEP67): significantly smaller lesions | bacterial burdens within the biofilm and surrounding tissue [5]: significant decrease in bacterial burdens within the biofilm and surrounding tissue

(MeL)RMYKPaFDS [sEP67, reference compound]
effect on log phase growth (OD600) (E. coli strain DHSα): little or no effect on growth | histopathologic analysis of skin tissue (neutrophils): normal pathology
